Here are results for 6 compounds from PubChem BioAssay (NCI).

Values joined by “and” are separate entries in the source; they are usually repeats but may differ in a detail not shown here. Identical values can stand only once.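 Following 48 hours of exposure in 96-well plates, responses at five concentrations were used to interpolate endpoints linearly. GI50 = concentration required for 50% inhibition of growth. TGI: total growth inhibition.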 Where only a bound is given, the exact number is not on record here.

Among the test systems are SF-268 CNS; MDA-MB-435; HCT-15 colon; A498 renal; RPMI-8226 leukemia; DU-145 prostate; SK-MEL-5 melanoma; OVCAR-3 ovarian; ACHN renal; EKVX NSCLC.
What all share (experiment): DTP human tumour cell line panel, 48 h

Take `COC(=O)c1c(O)c([N+](=O)[O-])cc2c1c1c(n2Cc2ccccc2)C(=O)c2ccccc2C1=O`: the GI50 with SF-268 CNS was 8.48 µM; in the experiment on MDA-MB-435, 6.28 µM; in the experiment on HCT-15 colon it was 34.6 µM; in the experiment on A498 renal, 18.5 µM; in the experiment with RPMI-8226 leukemia, 2.32 µM; in the experiment with DU-145 prostate, 14.3 µM. In addition, the GI50 in the experiment on SK-MEL-5 melanoma was 3.63 µM; with OVCAR-3 ovarian, 11.5 µM; in the experiment with ACHN renal, 29.8 µM; with EKVX NSCLC, 22.9 µM. The TGI with SF-268 CNS was 76.9 µM; with MDA-MB-435, 28 µM; in the experiment on HCT-15 colon, above 100 µM; in the experiment with A498 renal, 49 µM; in the experiment with RPMI-8226 leukemia, 24.9 µM; in the experiment with DU-145 prostate it was 27.6 µM. Besides, the TGI is 14.7 µM in the experiment with SK-MEL-5 melanoma, 69.7 µM with OVCAR-3 ovarian, above 100 µM in the experiment on ACHN renal and 82.9 µM in the experiment on EKVX NSCLC.
Take `Nc1ncnc2c1c(-c1cccc(OCc3ccccc3)c1)cn2C1CC(CN2CCC2)C1` (stereo not given): the GI50 with SF-268 CNS was 2.24 µM and 3.68 µM; in the experiment on MDA-MB-435 it was 1.21 µM and 1.49 µM; in the experiment on HCT-15 colon, 1.93 µM and 2.39 µM; with A498 renal it was 1.74 µM and 1.24 µM; in the experiment on RPMI-8226 leukemia, 1.9 µM and 2.18 µM; with DU-145 prostate it was 4.61 µM and 7.63 µM. The GI50 is 1.31 µM and 1.42 µM in the experiment on SK-MEL-5 melanoma; 6.26 µM and 7.96 µM with OVCAR-3 ovarian; 3.87 µM and 7.43 µM in the experiment with ACHN renal; 7.88 µM with EKVX NSCLC. Further, the TGI is 6.54 µM and > 10 µM with SF-268 CNS; 3.12 µM and 6.89 µM with MDA-MB-435; 12.6 µM and > 10 µM in the experiment with HCT-15 colon; 5.59 µM and 6.85 µM in the experiment on A498 renal; 5.41 µM and 5.31 µM in the experiment on RPMI-8226 leukemia; 17.7 µM and > 10 µM with DU-145 prostate. Moreover, the TGI with SK-MEL-5 melanoma was 2.67 µM and 2.8 µM; in the experiment with OVCAR-3 ovarian, 19.3 µM and > 10 µM; with ACHN renal, 15.3 µM and > 10 µM; in the experiment with EKVX NSCLC, above 10 µM.
On to `COc1cc(Nc2ncc(F)c(Nc3ccc4c(n3)NC(=O)C(C)(C)O4)n2)cc(OC)c1OC`, for which the GI50 with SF-268 CNS is 3.6 µM; with MDA-MB-435 it was above 10 µM; with HCT-15 colon, 4.75 µM; in the experiment with A498 renal it was 0.148 µM and 0.352 µM; with RPMI-8226 leukemia, above 100 µM; in the experiment with DU-145 prostate, above 10 µM. Besides, the GI50 was above 100 µM in the experiment with SK-MEL-5 melanoma; above 100 µM with OVCAR-3 ovarian; 0.791 µM and 1.36 µM in the experiment with ACHN renal; 4.3 µM in the experiment with EKVX NSCLC. Further, the TGI with SF-268 CNS is above 10 µM; in the experiment with MDA-MB-435 it was above 10 µM; with HCT-15 colon it was above 10 µM; in the experiment on A498 renal it was 0.547 µM and 2.15 µM; in the experiment on RPMI-8226 leukemia it was above 100 µM; in the experiment on DU-145 prostate, above 10 µM. Also, the TGI in the experiment with SK-MEL-5 melanoma is above 100 µM; in the experiment with OVCAR-3 ovarian, above 100 µM; with ACHN renal, above 100 µM; with EKVX NSCLC it was above 10 µM.
For `Clc1ccc(C2=Nn3c(nnc3-c3cc(Cl)cc(Cl)c3Cl)SC2)cc1`, the GI50 was 16.5 µM in the experiment with SF-268 CNS; 2.79 µM in the experiment on MDA-MB-435; 22.3 µM in the experiment with HCT-15 colon; 31.1 µM in the experiment on A498 renal; 44.3 µM in the experiment on RPMI-8226 leukemia; 34.2 µM in the experiment on DU-145 prostate. The GI50 with SK-MEL-5 melanoma is 23.5 µM; with OVCAR-3 ovarian, 21.2 µM; in the experiment on ACHN renal, 15.5 µM; in the experiment with EKVX NSCLC, 45.1 µM. The TGI in the experiment on SF-268 CNS is above 100 µM; with MDA-MB-435, 11.4 µM; with HCT-15 colon it was above 100 µM; in the experiment with A498 renal, above 100 µM; in the experiment with RPMI-8226 leukemia, above 100 µM; with DU-145 prostate it was above 100 µM. In addition, the TGI is above 100 µM with SK-MEL-5 melanoma, 50.8 µM with OVCAR-3 ovarian, 45.5 µM with ACHN renal and above 100 µM with EKVX NSCLC.
With `CCN(CC)CCCC(C)Nc1nc(C)cc(Nc2ccc3nc(C)cc(N)c3c2)n1` (stereo not given), the GI50 was 22.1 µM with SF-268 CNS; 14.5 µM in the experiment on MDA-MB-435; above 100 µM with HCT-15 colon; above 100 µM in the experiment on A498 renal; 4.52 µM with RPMI-8226 leukemia; 42.4 µM with DU-145 prostate. For the same compound, the GI50 in the experiment with SK-MEL-5 melanoma is above 100 µM; in the experiment with OVCAR-3 ovarian, 32.1 µM; in the experiment with ACHN renal, above 100 µM; in the experiment with EKVX NSCLC it was 53.3 µM. Moreover, the TGI was 50.9 µM with SF-268 CNS; 29.5 µM in the experiment with MDA-MB-435; above 100 µM with HCT-15 colon; above 100 µM with A498 renal; 23 µM in the experiment on RPMI-8226 leukemia; above 100 µM in the experiment with DU-145 prostate. Besides, the total growth inhibition concentration (TGI) in the experiment on SK-MEL-5 melanoma is above 100 µM; with OVCAR-3 ovarian, 96.9 µM; in the experiment on ACHN renal it was above 100 µM; with EKVX NSCLC, above 100 µM.
On to `N#CC(C#N)N=Nc1ccc(Br)cc1`, for which the GI50 is 13.1 µM with SF-268 CNS; 4.19 µM in the experiment on MDA-MB-435; 3.22 µM with HCT-15 colon; 13.3 µM in the experiment with A498 renal; 1.52 µM with RPMI-8226 leukemia; 4.02 µM in the experiment with DU-145 prostate. The GI50 in the experiment on SK-MEL-5 melanoma is 5.13 µM; in the experiment with OVCAR-3 ovarian it was 2.5 µM; in the experiment on ACHN renal it was 1.99 µM; with EKVX NSCLC, 6 µM. The TGI in the experiment with SF-268 CNS is above 100 µM; with MDA-MB-435 it was 20 µM; in the experiment on HCT-15 colon, 15.9 µM; in the experiment with A498 renal it was 46.1 µM; in the experiment with RPMI-8226 leukemia it was 8.03 µM; in the experiment on DU-145 prostate it was above 51.1 µM. In addition, the TGI was 34.1 µM with SK-MEL-5 melanoma, 15.4 µM in the experiment with OVCAR-3 ovarian, 7.89 µM in the experiment with ACHN renal and above 83 µM in the experiment on EKVX NSCLC.
